Several values for one entry are separate records, joined by “and”; a condition that tells them apart may be missing. Equal entries are not always repeated.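 Five concentrations, 48 hours, 96-well plates. GI50: concentration for 50% inhibition of growth. TGI: concentration producing complete growth inhibition.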
Legend:
Experiment in all cases: DTP human tumour cell line panel, 48 h
EKVX NSCLC = test system: EKVX NSCLC
UO-31 renal = test system: UO-31 renal
RPMI-8226 leukemia = test system: RPMI-8226 leukemia
NCI-H23 lung = test system: NCI-H23 lung
HL-60(TB) leukemia = test system: HL-60(TB) leukemia
BT-549 breast = test system: BT-549 breast
K-562 leukemia = test system: K-562 leukemia
MDA-N = test system: MDA-N
SNB-75 CNS = test system: SNB-75 CNS
HCC-2998 colon = test system: HCC-2998 colon

SMILES	TGI (EKVX NSCLC) [µM]	TGI (UO-31 renal) [µM]	TGI (RPMI-8226 leukemia) [µM]	TGI (NCI-H23 lung) [µM]	TGI (HL-60(TB) leukemia) [µM]	TGI (BT-549 breast) [µM]	TGI (K-562 leukemia) [µM]	TGI (MDA-N) [µM]	TGI (SNB-75 CNS) [µM]	TGI (HCC-2998 colon) [µM]	GI50 (EKVX NSCLC) [µM]	GI50 (UO-31 renal) [µM]	GI50 (SNB-75 CNS) [µM]	GI50 (RPMI-8226 leukemia) [µM]	GI50 (NCI-H23 lung) [µM]	GI50 (HL-60(TB) leukemia)	GI50 (BT-549 breast) [µM]	GI50 (K-562 leukemia) [µM]	GI50 (HCC-2998 colon) [µM]
Cc1ccc2nc(-c3ccc(N4C(=O)C(Cl)C4c4ccc(Cl)cc4)cc3)sc2c1 (stereo not given)	19.9	45.8	38.6	53.7	> 100	> 100	60.2	40.9	–	–	–	–	–	–	–	–	–	–	–
CCOC(=O)CC(=O)Nc1cccc2[nH]cnc12	> 100	> 100	> 100	> 100	> 100	> 100	> 100	> 100	98.1	–	–	–	–	–	–	–	–	–	–
O=c1c(=O)c2c(Br)sc(Br)c2c1=O	42.8	51.4	45.9	40.6	–	36.6	51	32.8	75.2	> 100	–	–	–	–	–	–	–	–	–
CCOC(=O)/C(C#N)=C/c1ccnc2ccccc12	> 100	–	92.5	> 100	–	> 100	–	> 100	> 100	> 100	–	–	–	–	–	–	–	–	–
FC(F)(F)c1cccc(-c2nc3ccccc3c3c2[C@@]2(N4CCCC4)CCCC[C@@H]32)c1	> 100	48.9	41.4	> 100	71.6	–	> 100	> 100	> 100	–	–	–	–	–	–	–	–	–	–
Clc1ccc(C(SCc2ccccc2)SCc2ccccc2)cc1	> 10	> 10	> 10	> 10	> 10	–	> 10	> 10	> 10	> 10	–	–	–	–	–	–	–	–	–
O=[N+]([O-])c1cc2c(cc1/C=N/n1c(CO)nc3ccccc31)OCO2	> 100	> 100	> 100	> 100	> 100	> 100	> 100	> 100	> 100	–	–	–	–	–	–	–	–	–	–
C[N+]1(CCCl)CC[N+](C)(CCCl)CC1 (stereo not given)	> 100	> 100	> 100	> 100	> 100	> 100	> 100	> 100	> 100	–	–	–	–	–	–	–	–	–	–
CC[C@H]1C=CCC[C@@]2(C[C@@H]3CC[C@H]4[C@@H](C(=O)OCCCCCCCCCCCCCCCC(=O)N(CCCN)C[C@@H](O)CCN)[C@@]5(CCC[C@@H](C)O5)NC(=[N+]34)N2)O1	3.25	> 10	2.53	3.51	4.24	4.41	3.18	3.01	–	3.12	–	–	–	–	–	–	–	–	–
O=C1c2cc(Cl)ccc2NC(=NCCCl)C2CSCN12 (stereo not given)	> 100	> 100	> 100	–	–	> 100	> 100	> 100	–	> 100	–	–	–	–	–	–	–	–	–
CCOC(=O)CNc1nc(=O)c2c(=O)oc(Cl)cc2o1	29.6	25.4	–	38.5	–	–	24.4	48	24.7	29	–	–	–	–	–	–	–	–	–
Cc1noc(NC2=CC(=O)C(=O)c3ccccc32)c1C	> 100	> 100	36	35.5	52.2	50.2	0.872	1.57	82.5	–	–	–	–	–	–	–	–	–	–
N#Cc1c(-c2ccccc2)c(N=Nc2ccc(Cl)cc2)c(=O)n2c1[nH]c1ccccc12	> 100	> 100	> 100	> 100	–	> 100	–	> 100	> 100	> 100	–	–	–	–	–	–	–	–	–
O=CC12C3CCC1C2C(=O)C3 (stereo not given)	> 100	–	> 100	> 100	–	> 100	> 100	> 100	> 100	> 100	–	–	–	–	–	–	–	–	–
CN(C)C(=O)OC(Cn1cncn1)(Cn1cncn1)c1ccc(Cl)cc1Cl	> 100	> 100	> 100	–	> 100	> 100	> 100	–	> 100	> 100	–	–	–	–	–	–	–	–	–
COc1cc2cc(C(=O)N3CC(CCl)c4c3cc(N)c3ccccc43)[nH]c2c(OC)c1OC (stereo not given)	< 0.01	< 0.01	< 0.0107	< 0.01	–	–	< 0.01	–	< 0.01	< 0.01	–	–	–	–	–	–	–	–	–
Cc1csc(/N=C\c2c(O)c3ccccc3oc2=O)n1	99.3	75.9	–	33	–	> 100	> 100	> 100	65.1	–	–	–	–	–	–	–	–	–	–
CCOP(=O)(OCC)C(N)c1ccc(Cl)cc1 (stereo not given)	> 100	–	> 100	> 100	> 100	> 100	–	> 100	–	–	–	–	–	–	–	–	–	–	–
COc1ccc(N2C=Nn3c(nc4sc5c(c4c3=O)CCCC5)C2)cc1	> 100	> 100	> 100	> 100	–	> 100	> 100	> 100	> 100	> 100	–	–	–	–	–	–	–	–	–
C=C1C(=O)O[C@H]2[C@@H](O)[C@H](C)CCC[C@]3(C)O[C@H]3CC[C@@]3(C)O[C@@H]3C[C@@H]12	11.3	12.4	50	13	2.03	4.5	3.25	–	15.2	10.9	–	–	–	–	–	–	–	–	–
COC(=O)[C@H](Cc1c[nH]c2ccccc12)NC(=O)c1ccc(CNC(=O)/C=C/c2cccc(Oc3ccccc3)c2)cc1	> 100	> 100	> 100	> 100	–	> 100	> 100	23.9	> 100	> 100	–	–	–	–	–	–	–	–	–
O=C(O)Cc1ccc2[nH]c(O)c(C3=Nc4ccccc4C3=O)c2c1	> 100	> 100	> 100	> 100	–	> 100	> 100	> 100	> 100	> 100	–	–	–	–	–	–	–	–	–
O=C1CC(c2cccc(Br)c2)n2cccc21 (stereo not given)	> 100	66.9	> 100	> 100	87.3	–	> 100	–	> 100	> 100	–	–	–	–	–	–	–	–	–
CCOC(=O)c1sc2[n+](c1C)C(=O)/C(=C/c1ccc([N+](=O)[O-])cc1)S2	–	33.4	67.3	48.4	> 100	–	83.4	66.9	49.7	37.5	–	–	–	–	–	–	–	–	–

SMILES	TGI (EKVX NSCLC) [µM]	TGI (UO-31 renal) [µM]	TGI (RPMI-8226 leukemia) [µM]	TGI (NCI-H23 lung) [µM]	TGI (HL-60(TB) leukemia) [µM]	TGI (BT-549 breast) [µM]	TGI (K-562 leukemia) [µM]	TGI (MDA-N) [µM]	TGI (SNB-75 CNS) [µM]	TGI (HCC-2998 colon) [µM]	GI50 (EKVX NSCLC) [µM]	GI50 (UO-31 renal) [µM]	GI50 (SNB-75 CNS) [µM]	GI50 (RPMI-8226 leukemia) [µM]	GI50 (NCI-H23 lung) [µM]	GI50 (HL-60(TB) leukemia)	GI50 (BT-549 breast) [µM]	GI50 (K-562 leukemia) [µM]	GI50 (HCC-2998 colon) [µM]
C=CCO[C@]1(CC=C)C(=O)C(=O)OC1C1COC(C)(C)O1 (stereo not given in full)	> 100	> 100	73	> 100	–	–	> 100	> 100	77.2	> 100	–	–	–	–	–	–	–	–	–
CN(/N=C/c1ccnc2ccccc12)c1ccc(Cl)cc1[N+](=O)[O-]	> 100	> 100	–	> 100	> 100	> 100	> 100	> 100	> 100	> 100	–	–	–	–	–	–	–	–	–
CC/C=C(\C(=C/CC)[N+](=O)[O-])[N+](=O)[O-]	29.8	33	47.6	34.3	–	32.2	71.3	43	> 100	34.4	–	–	–	–	–	–	–	–	–
S=C(c1c[nH]c2ccccc12)N1CCN(Cc2ccccc2)CC1	41.8	21.5	51.9	42.8	44	32.4	> 100	29.7	37	–	–	–	–	–	–	–	–	–	–
CC(=O)NC1=C[C@@H]([C@H]2COC(C)(C)O2)OC1=O	> 100	> 100	> 100	> 100	> 100	–	> 100	–	> 100	> 100	–	–	–	–	–	–	–	–	–
COc1ccc(CN=C(N)N)c2ccccc12	> 100	87.9	> 100	> 100	91	–	–	> 100	55.2	–	–	–	–	–	–	–	–	–	–
COc1ccc(C2C3COc4ccccc4C3=NN2c2ccccc2)cc1 (stereo not given)	> 100	> 100	> 100	> 100	–	> 100	> 100	> 100	> 100	–	–	–	–	–	–	–	–	–	–
Cc1ccc(N(CC(=O)Nc2ccc(S(=O)(=O)N3CCC(N4CCCC4)CC3)cc2)S(=O)(=O)c2ccc(Cl)cc2)cc1	3.82	3.27	5.06	3.87	4.33	3.31	2.75	–	2.73	–	1.69	1.6	1.22	2.08	1.8	1.73 µM	1.68	0.566	–
CC1C2(C)OC(=N)C(C#N)(C(c3cccc([N+](=O)[O-])c3)O2)C1(C#N)C#N (stereo not given)	98.3	> 100	–	> 100	39	> 100	> 100	32.4	> 100	–	–	–	–	–	–	–	–	–	–
Clc1ccc(C2Nc3ccccc3C3=NCCN32)cc1 (stereo not given)	93.7	> 100	42.4	55.4	57.1	56.5	46.2	39.8	–	–	–	–	–	–	–	–	–	–	–
CC(=O)N=C1N(/C=C2\C(=O)Oc3ccccc3C2=O)C(=O)/C(=C/c2ccc(Cl)cc2Cl)N1C	> 100	–	> 100	> 100	> 100	62	> 100	–	> 100	> 100	–	–	–	–	–	–	–	–	–
CN(C)CCCn1nc(N)c2nc3cc(Cl)ccc3nc21	> 100	> 92.6	> 100	> 100	–	> 100	> 100	> 100	> 100	> 100	–	–	–	–	–	–	–	–	–
CCCCCCCCCCCCCCCCOC[C@@H](COC(c1ccccc1)(c1ccccc1)c1ccccc1)O[P+](=S)OC (stereo not given in full)	31.5	30.1	14.7	23.7	36	16.7	41.8	5.53	29.6	–	–	–	–	–	–	–	–	–	–
Cc1ccc(/C(O)=C/c2nc3ccccc3s/c2=N/CS(=O)(=O)c2ccc(C)cc2)cc1	–	–	> 10	> 10	> 10	> 10	> 10	> 10	> 10	> 10	–	–	–	–	–	–	–	–	–
c1csc(C[N+]23CN4CN(CN(C4)C2)C3)c1	–	> 100	58.7	> 100	33.2	–	48.8	–	> 100	34.1	–	–	–	–	–	–	–	–	–
Oc1ccc(Cl)cc1CN1CCN(Cc2cc(Cl)ccc2O)C1	6.09	2.19	15.3	5.53	7.41	–	5.86	6.43	7.59	2.97	–	–	–	–	–	–	–	–	–
C=C(OC1C(C)=C2C(C1OC(=O)CCCCCCC)C(C)(OC(C)=O)CC(OC(=O)CCC)C1(O)C2OC(=O)C1(C)O)/C(C)=C/C (stereo not given)	0.896	0.614	0.0256	3.82	–	–	5.38	–	1.61	0.778	< 0.0001	0.17	< 0.0001	< 0.0001	< 0.0001	< 0.0001 µM	–	< 0.0001	< 0.0001
Nc1nc(N)c2cc(NCc3ccc(Cl)c(Cl)c3)ccc2n1	–	2.89	–	2.61	2.93	–	–	–	2.48	2.51	–	1.35	1.23	–	1.19	1.35 µM	–	–	1.16
N#Cc1c(-c2ccccc2)[nH]c(=O)n(C2OC(CO)C(O)C(O)C2O)c1=O (stereo not given)	> 100	> 100	> 100	> 100	> 100	> 100	> 100	–	> 100	> 100	–	–	–	–	–	47.4 µM and > 100 µM	–	–	–
O=C(N/N=C1/C(=O)c2c3ccccc3cc3cccc1c23)c1ccccc1	> 100	> 100	> 100	> 100	> 100	> 100	> 100	> 100	74.9	–	–	–	–	–	–	–	–	–	–
CC(=O)OC[C@@H](OC(C)=O)[C@H](OC(C)=O)[C@@H]1OC(C)(C)O[C@@H]1C1SCCCS1	> 100	> 100	> 100	> 100	–	> 100	> 100	> 100	> 100	> 100	–	–	–	–	–	–	–	–	–
O=c1[nH]nc(Cc2ccccc2)n1CCO	> 100	> 100	> 100	> 100	–	> 100	> 100	> 100	–	> 100	–	–	–	–	–	–	–	–	–
CCOC(=O)CC1(c2cccc3ccccc23)OC(=O)c2ccccc21 (stereo not given)	> 100	65.9	64.2	69.2	54.1	–	> 100	–	75.8	> 100	–	–	–	–	–	–	–	–	–

— PubChem BioAssay (NCI)
